Measurements published in publication PMC9671962 (Communications Biology, 2022).
Several values for one entry are separate records, joined by “and”; a condition that tells them apart may be missing. Equal entries are not always repeated.

Assays:
[1] = system: COG-N-426x-FELIX; test: Pre-clinical efficacy study, COG-N-426x-FELIX PDX; type: in vivo, mouse; settings: for Tumor Volume: COG-N-426x-FELIX tumor re-challenge (24 MBq/kg/fraction x 4); for EFS by AOC method / Tumor response (% growth from study initiation at ~ 200 mm3): single mouse
Experimental: (§1) Patient demographics and genetic characteristics are listed in (Supplementary Tables 1, 2)[17]. The maximum tolerated dose (MTD) was determined to be 36 MBq/kg administered by intra-peritoneal injection twice weekly for a total of 4 dose fractions and this fractionated regimen was used in all studies (Supplementary Fig. 1)[18],[19]. […] Nine of 11 PDX models were MYCN amplified (Fig. 1b), which is a hallmark of high-risk neuroblastoma. Tumor response was measured as the maximum percent decrease in tumor volume after treatment and event-free survival (EFS) was measured by the area over the curve method with tumor events pre-defined by tumor growth exceeding 2 cm[3],[18].
The use of 2 mice per arm was based on the previously reported statistical analysis. PDX tumors were implanted into the right flank of 5 to 6-weeks old female mice weighing about 20–25 grams. […] Two additional dose levels of 12, and 24 MBq/kg/fraction were assessed in a subset of models and were administered as stated above. In two models treated at the 24 MBq/kg/fraction dose level we re-challenged tumor response at the time of tumor progression with an additional 4 dose fractions at 24 MBq/kg/fraction given twice weekly. Doses were prepared in 500 µL total volume. An equal volume of saline was used for the vehicle group. Tumors were measured using a digital caliper at the initiation of the study and two times per week during the treatment period. Tumor volumes were calculated as volume = ([…]∗0.5236)/1000. Weights were obtained twice weekly and mice were monitored daily for signs of toxicity. […] Tumor response was assessed by best response defined as greatest reduction in tumor volume following the last dose and is presented as percent change in tumor volume. Event-free survival was determined by area over the curve method that calculates the time to tumor event, which was defined as tumors reaching or exceeding a size ≥ 2 cm^3.
Animal studies were performed in female mice due to the lack of sex-related differences for [^211At]PTT tolerability from initial dose response studies performed in female and male mice. Female mice were chosen due to their underlying behavior towards other study subjects that reduced nonstudy-related causes for decreased wellness. Pre-clinical efficacy studies were performed through “single mouse testing” to more closely recapitulate a clinical trial. […] Number size for treatment groups was determined by model tumor growth reproducibility, which was previously shown to have less than 5% normal variation with at least two animals. Statistical tests for tumor response and event-free survival (EFS) were performed as a grouped analysis that included all tumor models treated at each respective dose level (n = 2 per model per dose level). Statistical differences between treatment groups for tumor response was performed by paired-model T-test that compared reduction in tumor volume for the 36 MBq/kg dose level vs. 24 MBq/kg or 12 MBq/kg. Event free survival was measured by area over the curve method to quantify time to event, which was set as tumor growth exceeding 2 cm[3],[19]. Differences in EFS were tested across all treated models for each respective dose level, and against untreated controls, by paired-model ANOVA analysis. Associations of drug target expression and response were performed by linear regression analysis of EFS and PARP1 mRNA expression. Genetic signatures were visually presented as a function of EFS and no statistical tests were applied. Blood and marrow toxicity studies were performed with n = 5 sample sizes and powered to detect >20% differences between untreated controls and treated animals. Results were tested for significance by one-way ANOVA comparison from untreated controls. Marrow colony formation assays were performed in replicates of 2 for each mouse subject, dependent on marrow isolation, and all replicates are included in final analyses. […]

[2] = system: NB-1691x; test: Pre-clinical efficacy study, NB-1691x PDX; type: in vivo; settings: 36 MBq/kg/fraction x 4 fractions, single mouse
Experimental: as §1
(§2) The use of 2 mice per arm was based on the previously reported statistical analysis. […] Two additional dose levels of 12, and 24 MBq/kg/fraction were assessed in a subset of models and were administered as stated above. […] Tumors were measured using a digital caliper at the initiation of the study and two times per week during the treatment period. Tumor volumes were calculated as volume = ((diameter^1/2 + diameter^2/2)^3∗0.5236)/1000. Weights were obtained twice weekly and mice were monitored daily for signs of toxicity. […] Tumor response was assessed by best response defined as greatest reduction in tumor volume following the last dose and is presented as percent change in tumor volume. […]

[3] = system: NB-1643x; test: Pre-clinical efficacy study, NB-1643x PDX; type: in vivo; settings: 36 MBq/kg/fraction x 4 fractions, single mouse
Experimental: as §1, §2

[4] = type: in vivo; settings: CB57/BL6 mice; twice weekly, total of 4 dose fractions
Experimental: Toxicity studies were done in nontumor bearing CB-17 SCID mice (Taconic Biosciences). […] Each arm had n = 10 mice (5 male, 5 female mice). […] The vehicle group received an equal volume of saline (placebo). Weights were obtained twice weekly and mice were monitored daily for signs of toxicity. […] On target hematological and marrow toxicity which was evaluated by complete blood counts and marrow colony formation assay. An additional study was performed under identical conditions to evaluate additive dose effects. […] Each treatment group was composed of equal numbers of male and female mice to rule out gender-specific effects (n = 4 per treatment group per time point). Mice were followed for signs of acute toxicity for 2 weeks and 4 weeks before euthanasia. An additional group (n = 4) treated at 36 MBq/kg was euthanized after 72 h to assess early signs of toxicity by colony formation assays. This time course was chosen to best capture the nadir of bone marrow suppression. After euthanasia, blood was collected and femurs were dissected and processed for histopathology and bone marrow evaluation.
Supplementary Fi g u re 4: To le r a b ilit y studies to determine hematological and marrow toxicity of
[211At]PTT in CB57BL6 mice. a) Maximum tolerated dose finding studies fo r [211At]PTT administered
as 4 dose fractions given twice weekly in CB57BL6 mice. b) Complete blood counts assessed at 72 […]

[5] = COG-N-426x-FELIX, 24 MBq/kg/fraction x 4 fractions
[6] = COG-N-426x-FELIX, 36 MBq/kg/fraction x 4 fractions

O=C1NCCn2c(-c3ccc([211At])cc3)nc3cccc1c32 [[^211At]PTT, Astatine-211-parthanatine]
Tumor Volume ([1]; week 0): 0.25 cm3 | Tumor Volume ([1]; week 0.4): 0.2 cm3 | Tumor Volume ([1]; week 0.9): 0.05 cm3 | Tumor Volume ([1]; week 1.3): 0.08 cm3 | Tumor Volume ([1]; week 1.9): 0.01 cm3 | Tumor Volume ([1]; week 2.3): 0.01 cm3 | Tumor Volume ([1]; week 2.9): 0 cm3 | Tumor Volume ([1]; week 3.4): 0.01 cm3 | Tumor Volume ([1]; week 3.9): 0 cm3 | Tumor Volume ([1]; week 4.4): 0 cm3 | Tumor Volume ([1]; week 4.9): 0 cm3 | Tumor Volume ([1]; week 5.3): 0 cm3 | Tumor Volume ([1]; week 5.9): 0 cm3 | Tumor Volume ([1]; week 6.3): 0.02 cm3 | Tumor Volume ([1]; week 6.9): 0.19 cm3 | Tumor Volume ([1]; week 7.3): 0.13 cm3 | Tumor Volume ([1]; week 7.9): 0.03 cm3 | Tumor Volume ([1]; week 8.3): 0.02 cm3 | Tumor Volume ([1]; week 8.9): 0 cm3 | Tumor Volume ([1]; week 9.3): 0 cm3 | Tumor Volume ([1]; week 9.9): 0 cm3 | Tumor Volume ([1]; week 10.3): 0 cm3 | Tumor Volume ([1]; week 10.9): 0 cm3 | Tumor Volume ([1]; week 11.3): 0 cm3 | Tumor Volume ([1]; week 11.9): 0 cm3 | Tumor Volume ([1]; week 12.3): 0 cm3 | Tumor Volume ([1]; week 12.9): 0 cm3 | Tumor Volume ([1]; week 13.3): 0 cm3 | Tumor Volume ([1]; week 13.9): 0 cm3 | Tumor Volume ([1]; week 14.3): 0 cm3 | Tumor Volume ([1]; week 14.9): 0 cm3 | EFS1 (initial treatment) ([1]; COG-N-426x-FELIX, 24 MBq/kg/fraction x 4, re-challenged mouse n = 1): 49 days and 49.5 days | EFS by AOC method [1, 5]: 103. 9 Days | Tumor response (% growth from study initiation at ~ 200 mm3) [1, 5]: -100% | EFS by AOC method [1, 6]: 104. 1 Days and 104.134 Days and 104.127 Days | Tumor response (% growth from study initiation at ~ 200 mm3) [1, 6]: -100% | EFS2 (re-challenge treatment) ([1]; COG-N-426x-FELIX, re-challenge 24 MBq/kg/fraction x 4 at tumor progression, no measurable disease): 59 days | EFS by AOC method [2]: 50.9799 days and 78.469 days | Tumor response (% growth from study initiation at ~ 200 mm3) [2]: -100% | EFS by AOC method [3]: 90.5 days and 76.6 days and 90.5782 days and 76.6342 days | Tumor response (% growth from study initiation at ~ 200 mm3) [3]: -95.4545% and -100% | MTD [4]: 48 MBq/kg/fraction
